Reference: ChEMBL document CHEMBL4020788, “Synthesis, SAR and molecular docking studies of benzo[d]thiazole-hydrazones as potential antibacterial and antifungal agents” (2017)
In brackets after ≈: the same amount, converted by molar mass.

system: Fusarium verticillioides; assay: Antifungal activity against Fusarium moniliforme at 75 ug/ml after 48 hrs by agar well diffusion method; type: functional; conditions: read-out: DIZ

Structure (SMILES) | zone of inhibition at 75 µg/mL
Cc1cccc2nc(N/N=C/c3cccs3)sc12 | 12 mm

system: Staphylococcus aureus; assay: Antibacterial activity against methicillin resistant Staphylococcus aureus MRSA090 incubated for overnight by microdilution method; type: functional; conditions: not given

Structure (SMILES) | MIC
Cc1cccc2nc(N/N=C/c3cccs3)sc12 | 20 µg/mL (≈ 73.2 µM)

system: Bacillus subtilis; assay: Antibacterial activity against Bacillus subtilis incubated for overnight by microdilution method; type: functional; conditions: not given

Structure (SMILES) | MIC
Cc1cccc2nc(N/N=C/c3cccs3)sc12 | 26 µg/mL (≈ 95.1 µM)

system: Fusarium verticillioides; assay: Antifungal activity against Fusarium moniliforme at 100 ug/ml after 48 hrs by agar well diffusion method; type: functional; conditions: read-out: DIZ

Structure (SMILES) | zone of inhibition at 100 µg/mL
Cc1cccc2nc(N/N=C/c3cccs3)sc12 | 15 mm

system: Staphylococcus aureus; assay: Antibacterial activity against Staphylococcus aureus at 50 ug/ml after 24 hrs by agar well diffusion method; type: functional; conditions: read-out: DIZ

Structure (SMILES) | zone of inhibition at 50 µg/mL
Cc1cccc2nc(N/N=C/c3cccs3)sc12 | 18 mm

system: Klebsiella pneumoniae; assay: Antibacterial activity against Klebsiella pneumoniae at 25 ug/ml after 24 hrs by agar well diffusion method; type: functional; conditions: read-out: DIZ

Structure (SMILES) | zone of inhibition at 25 µg/mL
Cc1cccc2nc(N/N=C/c3cccs3)sc12 | 7 mm

system: Fusarium verticillioides; assay: Antifungal activity against Fusarium moniliforme at 50 ug/ml after 48 hrs by agar well diffusion method; type: functional; conditions: read-out: DIZ

Structure (SMILES) | zone of inhibition at 50 µg/mL
Cc1cccc2nc(N/N=C/c3cccs3)sc12 | 9 mm

system: Klebsiella pneumoniae; assay: Antibacterial activity against Klebsiella pneumoniae at 100 ug/ml after 24 hrs by agar well diffusion method; type: functional; conditions: read-out: DIZ

Structure (SMILES) | zone of inhibition at 100 µg/mL
Cc1cccc2nc(N/N=C/c3cccs3)sc12 | 21 mm

system: Klebsiella pneumoniae; assay: Antibacterial activity against Klebsiella pneumoniae at 50 ug/ml after 24 hrs by agar well diffusion method; type: functional; conditions: read-out: DIZ

Structure (SMILES) | zone of inhibition at 50 µg/mL
Cc1cccc2nc(N/N=C/c3cccs3)sc12 | 11 mm

system: Fusarium verticillioides; assay: Antifungal activity against Fusarium moniliforme at 25 ug/ml after 48 hrs by agar well diffusion method; type: functional; conditions: read-out: DIZ

Structure (SMILES) | zone of inhibition at 25 µg/mL
Cc1cccc2nc(N/N=C/c3cccs3)sc12 | 7 mm

system: Aspergillus niger; assay: Antifungal activity against Aspergillus niger at 50 ug/ml after 48 hrs by agar well diffusion method; type: functional; conditions: read-out: DIZ

Structure (SMILES) | zone of inhibition at 50 µg/mL
Cc1cccc2nc(N/N=C/c3cccs3)sc12 | 15 mm

system: Bacillus subtilis; assay: Antibacterial activity against Bacillus subtilis at 100 ug/ml after 24 hrs by agar well diffusion method; type: functional; conditions: read-out: DIZ

Structure (SMILES) | zone of inhibition at 100 µg/mL
Cc1cccc2nc(N/N=C/c3cccs3)sc12 | 24 mm

system: Aspergillus niger; assay: Antifungal activity against Aspergillus niger at 75 ug/ml after 48 hrs by agar well diffusion method; type: functional; conditions: read-out: DIZ

Structure (SMILES) | zone of inhibition at 75 µg/mL
Cc1cccc2nc(N/N=C/c3cccs3)sc12 | 21 mm

system: Bacillus subtilis; assay: Antibacterial activity against Bacillus subtilis at 75 ug/ml after 24 hrs by agar well diffusion method; type: functional; conditions: read-out: DIZ

Structure (SMILES) | zone of inhibition at 75 µg/mL
Cc1cccc2nc(N/N=C/c3cccs3)sc12 | 21 mm

system: Fusarium oxysporum; assay: Antifungal activity against Fusarium oxysporum at 75 ug/ml after 48 hrs by agar well diffusion method; type: functional; conditions: read-out: DIZ

Structure (SMILES) | zone of inhibition at 75 µg/mL
Cc1cccc2nc(N/N=C/c3cccs3)sc12 | 29 mm

system: Fusarium verticillioides; assay: Antifungal activity against Fusarium moniliforme after 48 to 72 hrs by microdilution method; type: functional; conditions: not given

Structure (SMILES) | MIC
Cc1cccc2nc(N/N=C/c3cccs3)sc12 | 28 µg/mL (≈ 102 µM)

system: Aspergillus niger; assay: Antifungal activity against Aspergillus niger at 100 ug/ml after 48 hrs by agar well diffusion method; type: functional; conditions: read-out: DIZ

Structure (SMILES) | zone of inhibition at 100 µg/mL
Cc1cccc2nc(N/N=C/c3cccs3)sc12 | 26 mm

system: Bacillus subtilis; assay: Antibacterial activity against Bacillus subtilis at 25 ug/ml after 24 hrs by agar well diffusion method; type: functional; conditions: read-out: DIZ

Structure (SMILES) | zone of inhibition at 25 µg/mL
Cc1cccc2nc(N/N=C/c3cccs3)sc12 | 10 mm

system: Escherichia coli; assay: Antibacterial activity against Escherichia coli at 25 ug/ml after 24 hrs by agar well diffusion method; type: functional; conditions: read-out: DIZ

Structure (SMILES) | zone of inhibition at 25 µg/mL
Cc1cccc2nc(N/N=C/c3cccs3)sc12 | 10 mm

system: Fusarium oxysporum; assay: Antifungal activity against Fusarium oxysporum at 25 ug/ml after 48 hrs by agar well diffusion method; type: functional; conditions: read-out: DIZ

Structure (SMILES) | zone of inhibition at 25 µg/mL
Cc1cccc2nc(N/N=C/c3cccs3)sc12 | 21 mm

system: Aspergillus niger; assay: Antifungal activity against Aspergillus niger at 25 ug/ml after 48 hrs by agar well diffusion method; type: functional; conditions: read-out: DIZ

Structure (SMILES) | zone of inhibition at 25 µg/mL
Cc1cccc2nc(N/N=C/c3cccs3)sc12 | 11 mm

system: Staphylococcus aureus; assay: Antibacterial activity against Staphylococcus aureus at 100 ug/ml after 24 hrs by agar well diffusion method; type: functional; conditions: read-out: DIZ

Structure (SMILES) | zone of inhibition at 100 µg/mL
Cc1cccc2nc(N/N=C/c3cccs3)sc12 | 28 mm

system: Escherichia coli; assay: Antibacterial activity against Escherichia coli at 75 ug/ml after 24 hrs by agar well diffusion method; type: functional; conditions: read-out: DIZ

Structure (SMILES) | zone of inhibition at 75 µg/mL
Cc1cccc2nc(N/N=C/c3cccs3)sc12 | 18 mm

system: Staphylococcus aureus; assay: Antibacterial activity against methicillin resistant Staphylococcus aureus MRSA090 at 25 ug/ml after 24 hrs by agar well diffusion method; type: functional; conditions: MRSA090, 24 h, read-out: DIZ

Structure (SMILES) | zone of inhibition at 25 µg/mL
Cc1cccc2nc(N/N=C/c3cccs3)sc12 | 13 mm

system: Staphylococcus aureus; assay: Antibacterial activity against methicillin resistant Staphylococcus aureus MRSA090 at 75 ug/ml after 24 hrs by agar well diffusion method; type: functional; conditions: MRSA090, 24 h, read-out: DIZ

Structure (SMILES) | zone of inhibition at 75 µg/mL
Cc1cccc2nc(N/N=C/c3cccs3)sc12 | 22 mm

system: Fusarium oxysporum; assay: Antifungal activity against Fusarium oxysporum after 48 to 72 hrs by microdilution method; type: functional; conditions: not given

Structure (SMILES) | MIC
Cc1cccc2nc(N/N=C/c3cccs3)sc12 | 23 µg/mL (≈ 84.1 µM)

system: Staphylococcus aureus; assay: Antibacterial activity against methicillin resistant Staphylococcus aureus MRSA090 at 100 ug/ml after 24 hrs by agar well diffusion method; type: functional; conditions: MRSA090, 24 h, read-out: DIZ

Structure (SMILES) | zone of inhibition at 100 µg/mL
Cc1cccc2nc(N/N=C/c3cccs3)sc12 | 28 mm

system: Staphylococcus aureus; assay: Antibacterial activity against Staphylococcus aureus at 75 ug/ml after 24 hrs by agar well diffusion method; type: functional; conditions: read-out: DIZ

Structure (SMILES) | zone of inhibition at 75 µg/mL
Cc1cccc2nc(N/N=C/c3cccs3)sc12 | 24 mm

system: Staphylococcus aureus; assay: Antibacterial activity against methicillin resistant Staphylococcus aureus MRSA090 at 50 ug/ml after 24 hrs by agar well diffusion method; type: functional; conditions: MRSA090, 24 h, read-out: DIZ

Structure (SMILES) | zone of inhibition at 50 µg/mL
Cc1cccc2nc(N/N=C/c3cccs3)sc12 | 16 mm

system: Klebsiella pneumoniae; assay: Antibacterial activity against Klebsiella pneumoniae incubated for overnight by microdilution method; type: functional; conditions: not given

Structure (SMILES) | MIC
Cc1cccc2nc(N/N=C/c3cccs3)sc12 | 26 µg/mL (≈ 95.1 µM)

system: Bacillus subtilis; assay: Antibacterial activity against Bacillus subtilis at 50 ug/ml after 24 hrs by agar well diffusion method; type: functional; conditions: read-out: DIZ

Structure (SMILES) | zone of inhibition at 50 µg/mL
Cc1cccc2nc(N/N=C/c3cccs3)sc12 | 15 mm

system: Staphylococcus aureus; assay: Antibacterial activity against Staphylococcus aureus at 25 ug/ml after 24 hrs by agar well diffusion method; type: functional; conditions: read-out: DIZ

Structure (SMILES) | zone of inhibition at 25 µg/mL
Cc1cccc2nc(N/N=C/c3cccs3)sc12 | 12 mm

system: Fusarium oxysporum; assay: Antifungal activity against Fusarium oxysporum at 50 ug/ml after 48 hrs by agar well diffusion method; type: functional; conditions: read-out: DIZ

Structure (SMILES) | zone of inhibition at 50 µg/mL
Cc1cccc2nc(N/N=C/c3cccs3)sc12 | 24 mm

system: Aspergillus niger; assay: Antifungal activity against Aspergillus niger after 48 to 72 hrs by microdilution method; type: functional; conditions: not given

Structure (SMILES) | MIC
Cc1cccc2nc(N/N=C/c3cccs3)sc12 | 30 µg/mL (≈ 110 µM)

system: Klebsiella pneumoniae; assay: Antibacterial activity against Klebsiella pneumoniae at 75 ug/ml after 24 hrs by agar well diffusion method; type: functional; conditions: read-out: DIZ

Structure (SMILES) | zone of inhibition at 75 µg/mL
Cc1cccc2nc(N/N=C/c3cccs3)sc12 | 18 mm

system: Escherichia coli; assay: Antibacterial activity against Escherichia coli incubated for overnight by microdilution method; type: functional; conditions: not given

Structure (SMILES) | MIC
Cc1cccc2nc(N/N=C/c3cccs3)sc12 | 35 µg/mL (≈ 128 µM)

system: Escherichia coli; assay: Antibacterial activity against Escherichia coli at 50 ug/ml after 24 hrs by agar well diffusion method; type: functional; conditions: read-out: DIZ

Structure (SMILES) | zone of inhibition at 50 µg/mL
Cc1cccc2nc(N/N=C/c3cccs3)sc12 | 14 mm

system: Staphylococcus aureus; assay: Antibacterial activity against Staphylococcus aureus incubated for overnight by microdilution method; type: functional; conditions: not given

Structure (SMILES) | MIC
Cc1cccc2nc(N/N=C/c3cccs3)sc12 | 32 µg/mL (≈ 117 µM)

system: Fusarium oxysporum; assay: Antifungal activity against Fusarium oxysporum at 100 ug/ml after 48 hrs by agar well diffusion method; type: functional; conditions: read-out: DIZ

Structure (SMILES) | zone of inhibition at 100 µg/mL
Cc1cccc2nc(N/N=C/c3cccs3)sc12 | 30 mm

system: Escherichia coli; assay: Antibacterial activity against Escherichia coli at 100 ug/ml after 24 hrs by agar well diffusion method; type: functional; conditions: read-out: DIZ

Structure (SMILES) | zone of inhibition at 100 µg/mL
Cc1cccc2nc(N/N=C/c3cccs3)sc12 | 22 mm
